Measurements reported in ChEMBL document CHEMBL5236576, “Discovery of a potent M5 antagonist with improved clearance profile. Part 2: Pyrrolidine amide-based antagonists” (Bioorg Med Chem Lett, 2022).
Activity calls are given as the source filed them. The rule behind the calls is not given here.

What was measured:
[1] = target: T1, Muscarinic acetylcholine receptor M5 (Homo sapiens) (UniProt P08912); assay: Antagonist activity at human muscarinic M5 receptor expressed in CHO cells assessed as minimal acetylcholine response by calcium mobilisation assay relative to control; assay type: cell-based; design: concentration or dose not given beside the values
T1 sequence (whole entry): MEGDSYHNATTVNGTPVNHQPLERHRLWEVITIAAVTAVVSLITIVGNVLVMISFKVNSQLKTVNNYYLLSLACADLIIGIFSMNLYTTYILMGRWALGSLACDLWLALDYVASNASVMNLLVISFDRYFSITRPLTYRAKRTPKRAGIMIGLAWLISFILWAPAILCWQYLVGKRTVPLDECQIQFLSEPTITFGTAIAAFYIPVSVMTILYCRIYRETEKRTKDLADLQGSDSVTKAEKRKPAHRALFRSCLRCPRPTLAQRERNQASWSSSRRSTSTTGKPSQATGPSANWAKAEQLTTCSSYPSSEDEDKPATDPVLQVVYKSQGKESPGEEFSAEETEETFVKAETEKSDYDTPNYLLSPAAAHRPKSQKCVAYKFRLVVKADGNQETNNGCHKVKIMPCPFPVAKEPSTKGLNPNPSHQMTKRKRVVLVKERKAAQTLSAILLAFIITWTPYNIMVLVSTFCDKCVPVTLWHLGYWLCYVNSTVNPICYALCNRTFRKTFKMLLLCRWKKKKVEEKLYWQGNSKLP

[2] = Lipophilicity, logD of the compound at pH 7.4; assay type: physicochemical; details: buffer
[3] = Intrinsic clearance in human; assay type: ADME
[4] = Intrinsic clearance in rat; assay type: ADME
[5] = target: T2, Muscarinic acetylcholine receptor M5 (Rattus norvegicus, UniProt P08911); assay: Antagonist activity at rat muscarinic M5 receptor expressed in CHO cells in the presence of acetylcholine by calcium mobilisation assay; assay type: cell-based
T2 sequence (P08911 whole entry): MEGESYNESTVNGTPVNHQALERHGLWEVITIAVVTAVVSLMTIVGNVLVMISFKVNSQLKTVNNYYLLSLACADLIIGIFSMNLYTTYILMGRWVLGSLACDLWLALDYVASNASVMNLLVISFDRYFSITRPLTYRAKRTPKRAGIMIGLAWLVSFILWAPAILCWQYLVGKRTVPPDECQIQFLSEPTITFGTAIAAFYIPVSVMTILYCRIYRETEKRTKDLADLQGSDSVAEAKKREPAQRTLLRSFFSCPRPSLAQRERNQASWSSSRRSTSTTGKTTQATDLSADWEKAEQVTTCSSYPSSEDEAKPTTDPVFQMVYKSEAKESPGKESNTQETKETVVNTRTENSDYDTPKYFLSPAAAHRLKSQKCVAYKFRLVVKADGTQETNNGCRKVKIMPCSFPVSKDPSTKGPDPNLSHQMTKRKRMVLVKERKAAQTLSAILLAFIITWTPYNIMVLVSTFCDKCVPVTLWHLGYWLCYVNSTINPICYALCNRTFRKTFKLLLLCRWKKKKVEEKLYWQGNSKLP

[6] = target: T3, Muscarinic acetylcholine receptor M5 (Rattus norvegicus) (UniProt P08911); assay: Antagonist activity at rat muscarinic M5 receptor expressed in CHO cells assessed as minimal acetylcholine response by calcium mobilisation assay relative to control; assay type: cell-based; design: scale not given: the % may be the effect or the level left; details: filed as antagonist
T3 sequence (whole entry): T2 sequence (P08911 whole entry)

[7] = Unbound fraction in rat plasma; assay type: ADME, cell-free
[8] = Unbound fraction in human plasma; assay type: ADME, cell-free
[9] = Unbound fraction in rat brain; assay type: ADME, tissue-based
[10] = target: T4, Muscarinic acetylcholine receptor M5 (Homo sapiens, UniProt P08912); assay: (§1) Antagonist activity at human muscarinic M5 receptor expressed in CHO cells in the presence of acetylcholine by calcium mobilisation assay; assay type: cell-based
T4 sequence (P08912 whole entry): T1 sequence (whole entry)

[11] = target: T1, Muscarinic acetylcholine receptor M5 (Homo sapiens); assay: Potency index, ratio of VU6027831 IC50 to test compound IC50 for antagonist activity at human M5 muscarinic receptor
[12] = target: T1, Muscarinic acetylcholine receptor M5 (Homo sapiens); assay: as §1; assay type: cell-based
[13] = target: T3, Muscarinic acetylcholine receptor M5 (Rattus norvegicus); assay: Antagonist activity at rat muscarinic M5 receptor assessed as minimal acetylcholine response relative to control; design: scale not given: the % may be the effect or the level left; details: filed as antagonist
[14] = target: T5, Muscarinic acetylcholine receptor M1 (Homo sapiens, UniProt P11229); assay: Antagonist activity at human muscarinic M1 receptor expressed in CHO cells in the presence of acetylcholine by calcium mobilisation assay; assay type: cell-based
T5 sequence (P11229 whole entry): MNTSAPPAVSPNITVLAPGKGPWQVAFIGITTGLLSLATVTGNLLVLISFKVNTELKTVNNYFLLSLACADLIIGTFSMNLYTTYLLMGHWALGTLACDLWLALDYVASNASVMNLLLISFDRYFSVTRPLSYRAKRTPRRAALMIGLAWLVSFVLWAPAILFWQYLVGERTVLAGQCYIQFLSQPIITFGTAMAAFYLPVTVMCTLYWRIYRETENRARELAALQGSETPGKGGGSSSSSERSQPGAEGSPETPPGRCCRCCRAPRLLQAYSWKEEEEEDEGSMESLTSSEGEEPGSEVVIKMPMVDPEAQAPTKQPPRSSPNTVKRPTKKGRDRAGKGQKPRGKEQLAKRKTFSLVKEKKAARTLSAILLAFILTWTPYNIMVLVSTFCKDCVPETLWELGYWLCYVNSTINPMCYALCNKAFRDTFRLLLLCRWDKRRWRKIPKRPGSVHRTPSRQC

[15] = target: T6, Muscarinic acetylcholine receptor M1 (Homo sapiens) (UniProt P11229); assay: Antagonist activity at human muscarinic M1 receptor expressed in CHO cells assessed as minimal acetylcholine response by calcium mobilisation assay relative to control; assay type: cell-based; design: scale not given: the % may be the effect or the level left; details: filed as antagonist
T6 sequence (whole entry): T5 sequence (P11229 whole entry)

[16] = target: T7, Muscarinic acetylcholine receptor M4 (Homo sapiens, UniProt P08173); assay: Antagonist activity at human muscarinic M4 receptor expressed in CHO cells in the presence of acetylcholine by calcium mobilisation assay; assay type: cell-based
T7 sequence (P08173 whole entry): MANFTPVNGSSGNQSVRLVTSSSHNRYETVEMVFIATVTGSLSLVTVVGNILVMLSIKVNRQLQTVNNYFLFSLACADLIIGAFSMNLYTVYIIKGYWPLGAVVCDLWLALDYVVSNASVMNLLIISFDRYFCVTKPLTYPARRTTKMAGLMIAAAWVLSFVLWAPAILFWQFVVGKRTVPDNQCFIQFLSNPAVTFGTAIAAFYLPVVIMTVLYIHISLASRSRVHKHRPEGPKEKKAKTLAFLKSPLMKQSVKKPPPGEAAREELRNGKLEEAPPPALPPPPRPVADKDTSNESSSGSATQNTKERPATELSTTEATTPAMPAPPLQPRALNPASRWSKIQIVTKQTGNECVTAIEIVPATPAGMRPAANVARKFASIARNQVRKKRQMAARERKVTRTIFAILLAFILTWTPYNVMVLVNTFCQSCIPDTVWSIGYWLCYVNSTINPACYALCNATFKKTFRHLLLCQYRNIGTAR

[17] = Apparent permeability in MDCK-MDR1 cells; assay type: ADME, cell-based, Canis lupus familiaris; details: dog
[18] = test system: P-glycoprotein; assay: Efflux ratio of permeability in MDCK-MDR1 cells expressing P-glycoprotein; assay type: ADME, cell-based, Canis lupus familiaris; details: dog

Row | Compound | Activity ([1]; filed as antagonist) [%] | logD [2] | CLint scaled [3] [mL/min/kg] | CLint scaled [4] [mL/min/kg] | IC50 [10] [nM] | further results
1 | O=C(Nc1ccc2scnc2c1)[C@@H]1CCN(S(=O)(=O)c2ccc3ncsc3c2)C1 | 2 | 2.04 | 33 | 51 | – | IC50 [5]: 550 nM; Activity [6]: 4%; Fu [7]: 0.01; Fu [8]: 0.12; fraction unbound [9]: 0.08
2 | O=C(Nc1ccc2scnc2c1)C1CCN(S(=O)(=O)c2ccc3c(c2)CCO3)C1 (stereo unspecified) | 2 | – | 72 | 252 | 47 | Ratio IC50 [11]: 2
3 | Cn1cc(S(=O)(=O)N2CC[C@@H](C(=O)Nc3ccc4scnc4c3)C2)c(C(F)(F)F)n1 | – | 2.62 | – | – | > 10000 | Activity [1]: 59%
4 | O=C(Nc1ccc2scnc2c1)C1CN(S(=O)(=O)c2ccc3c(c2)CCO3)C1 | 2 | – | 61 | 301 | – | –
5 | O=C(Nc1ccc2scnc2c1)C12CC1CN(S(=O)(=O)c1ccc3c(c1)CCO3)C2 (racemic) | 2 | 2.88 | 115 | 396 | 270 | –
6 | O=C(Nc1ccc2scnc2c1)[C@@H]1CCN(S(=O)(=O)c2ccc3c(c2)CCC3)C1 | 31 | 3.54 | – | – | – | –
7 | O=C(Nc1ccc2scnc2c1)[C@@H]1CCN(S(=O)(=O)c2ccc3c(c2)CCO3)C1 | 2 | 2.53 | 50.6 | 356 | 21 | Activity ([1]; filed as antagonist, tested as the 2H-labelled form): 2%
8 | O=C(Nc1ccc2scnc2c1)[C@@H]1CCN(S(=O)(=O)c2cccnc2)C1 | – | 1.65 | – | – | – | Activity [12]: inactive
9 | C[C@@H]1CN(S(=O)(=O)c2ccc3c(c2)CCO3)C[C@@H]1C(=O)Nc1ccc2scnc2c1 | 3 | 2.88 | 202 | 769 | 35 | –
10 | Cc1nn(C)cc1S(=O)(=O)N1CC[C@@H](C(=O)Nc2ccc3scnc3c2)C1 | 6 | 1.62 | – | – | – | –
11 | [2H]C1([2H])Oc2ccc(S(=O)(=O)N3CC[C@@H](C(=O)Nc4ccc5scnc5c4)C3)cc2C1([2H])[2H] | – | 2.45 | 50 | 168 | – | –
12 | O=C(Nc1ccc2scnc2c1)[C@@H]1CCN(S(=O)(=O)c2ccc3ncccc3c2)C1 | 3 | 1.99 | 42 | 191 | – | –
13 | O=C(Nc1ccc2scnc2c1)[C@H]1CCN(S(=O)(=O)c2ccc3c(c2)CCO3)C1 | 3 | 2.51 | 64 | 201 | 440 | –
14 | O=C(Nc1ccc2scnc2c1)[C@@H]1CCN(S(=O)(=O)c2ccc(Cl)nc2)C1 | – | 2.41 | – | – | – | Activity [12]: inactive
15 | Cc1ccc(S(=O)(=O)N2CC[C@@H](C(=O)Nc3ccc4scnc4c3)C2)cn1 | 41 | 1.85 | – | – | > 10000 | –
16 | O=C(Nc1ccc2scnc2c1)[C@@H]1CCN(S(=O)(=O)c2ccc3c(c2)OCO3)C1 | 3 | 2.43 | 30 | 267 | – | –
17 | O=C(Nc1ccc2scnc2c1)[C@H]1CN(S(=O)(=O)c2ccc3c(c2)CCO3)C[C@@H]1C(F)(F)F | – | 3.65 | – | – | – | Activity [12]: inactive
18 | O=C(Nc1ccc2scnc2c1)C1CCN(S(=O)(=O)c2ccc3c(c2)CCO3)CC1 | – | – | – | – | – | Activity [13]: 3%
19 | C[C@H]1CN(S(=O)(=O)c2ccc3c(c2)CCO3)C[C@@H]1C(=O)Nc1ccc2scnc2c1 | 2 | 2.94 | 5 | 51 | 87 | IC50 [5]: 190 nM; Activity [6]: 2%; IC50 [14]: > 10 µM; Activity [15]: 8%; IC50 [16]: > 10 µM; Fu [7]: 0.01; Fu [8]: 0.03; fraction unbound [9]: 0.05; Papp [17]: 1.75 10^-6 cm/s; efflux ratio [18]: 32.3
